Data reported in patent US20240209028A1, “CNP COMPOUNDS” (priority 2022, published 2024).
Starred links: 1 amine or outer side, 2 acyl side, 3 side chain; linkers in the order of their positions; H or OH if unused. Positions of bridges follow the written chain, without caps; N, C: chain ends. Residues, ends and D or L forms follow the SMILES beside them. *: point of attachment. C18 diacid = O=C(O)CCCCCCCCCCCCCCCCC(=O)*; γGlu = O=C(O)[C@H](CCC(=O)[*:2])N[*:1]; X1 = O=C(CCCCCCCCCCCCCCCCc1nnn[nH]1)*; AEEA = NCCOCCOCC(=O)O

Experiments:
[1] = target: T1, human natriuretic peptide receptor 2 (hNPR2) (Homo sapiens, UniProt P20594); experiment: In vitro hNPR2 activity assay (cGMP GloSensor reporter, HEK293); format: cell-based; details: potency relative to CNP22 (0065)
T1 construct: expressed in transfected cells; host or cells: HEK293 (ATCC CRL-1573), clone 35, co-transfected with pGloSensor-42F
T1 sequence (P20594 23-1047): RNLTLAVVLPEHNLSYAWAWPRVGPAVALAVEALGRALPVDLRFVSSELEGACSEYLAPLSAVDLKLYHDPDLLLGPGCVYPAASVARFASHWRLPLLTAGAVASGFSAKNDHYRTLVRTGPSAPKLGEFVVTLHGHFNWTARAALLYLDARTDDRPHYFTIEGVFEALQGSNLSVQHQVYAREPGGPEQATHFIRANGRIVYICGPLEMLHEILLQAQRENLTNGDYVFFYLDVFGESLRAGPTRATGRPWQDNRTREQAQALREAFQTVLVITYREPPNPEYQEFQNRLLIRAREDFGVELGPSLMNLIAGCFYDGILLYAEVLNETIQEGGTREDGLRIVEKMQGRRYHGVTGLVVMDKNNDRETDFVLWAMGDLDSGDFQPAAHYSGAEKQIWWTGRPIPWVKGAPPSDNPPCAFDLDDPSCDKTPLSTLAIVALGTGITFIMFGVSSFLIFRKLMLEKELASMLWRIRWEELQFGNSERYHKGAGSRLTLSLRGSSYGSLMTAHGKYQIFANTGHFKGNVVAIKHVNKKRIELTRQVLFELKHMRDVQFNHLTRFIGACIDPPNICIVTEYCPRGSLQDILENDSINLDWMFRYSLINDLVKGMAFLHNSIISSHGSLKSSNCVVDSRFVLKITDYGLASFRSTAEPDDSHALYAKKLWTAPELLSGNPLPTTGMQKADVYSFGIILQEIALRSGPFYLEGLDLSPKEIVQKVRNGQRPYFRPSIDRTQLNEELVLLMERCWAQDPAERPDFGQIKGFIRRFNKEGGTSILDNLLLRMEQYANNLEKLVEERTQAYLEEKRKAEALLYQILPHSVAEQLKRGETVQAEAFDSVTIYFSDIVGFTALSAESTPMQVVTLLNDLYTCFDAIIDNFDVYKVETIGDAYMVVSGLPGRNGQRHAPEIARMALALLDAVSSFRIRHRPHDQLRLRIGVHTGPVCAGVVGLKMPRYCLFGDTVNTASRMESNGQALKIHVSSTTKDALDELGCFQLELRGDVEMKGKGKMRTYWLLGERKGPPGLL
Summary of the method: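 Potency is the EC50 from a four-parameter logistic fit, also expressed relative to the in-plate CNP22 control (×100), with at least two replicates. Compounds (ten concentrations, […], HSA-free diluent with 1% OVA, 0.01% Tween20) were incubated 30 min at 37 °C on HEK293 cells co-expressing hNPR2 and a GloSensor cGMP luciferase. Luminescence detected with Bright-Glo.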

[2] = High-Molecular-Weight-Protein (HMWP) formation by SEC-UPLC; format: physicochemical; details: increase over two weeks at 37° C.
Experimental: In order to assess the propensity of CNP compounds to form covalent dimers or oligomers when formulated the High-Molecular-Weight-Protein content of CNP compound formulations at pH 4.0 and 6.5 were determined.
Procedure: The relative amount of covalent HMWP was assessed using SEC-UPLC. SEC-UPLC was conducted using a Waters UPLC Protein BEH SEC column, 125A, 4.6×150 mm, 1.7 μm, with isocratic elution (0.3 M NaCl, 10 mM NaH2PO4 and 5 mM H3PO4, 50% (v/v) isopropanol, pH 2.4) with a flow rate of 0.3 mL/min, a column temperature at 50° C. with UV-detection at 215 nm. The total area of peaks eluting prior to the monomeric main peak was termed HMWP and given on a percentage scale relative to the total peptide peak area.
(§1) Results: HMWP Formation Following 2-Weeks Quiescent Incubation at 37° C.: Samples at pH 4.0 were prepared as described in Example 5 and the amount of HMWP was determined as described above. Samples were incubated for two weeks at 37° C. and the amount of HMWP was determined again. The increase in HMWP over two weeks incubation at 37° C. are reported in Table 10 (in case the incubation period deviated from two weeks the increase in HMWP was normalized to two weeks assuming a constant formation rate).
as §1, with “Samples” for “Results: HMWP Formation Following 2-Weeks Quiescent Incubation at 37° C.: Samples”, “6.5” for “4.0”, “11” for “10”

For `CC[C@H](C)[C@@H]1NC(=O)[C@H](CCCNC(=N)N)NC(=O)[C@H](CC(=O)O)NC(=O)[C@H](CC(C)C)NC(=O)[C@@H]2CCCN2C(=O)[C@H](CC(C)C)NC(=O)CNC(=O)[C@H](Cc2ccccc2)NC(=O)[C@@H](NC(=O)CNC(=O)[C@H](CO)NC(=O)[C@H](CO)NC(=O)[C@H](CC(C)C)NC(=O)CNC(=O)[C@@H](NC(=O)[C@H](Cc2c[nH]cn2)NC(=O)[C@H](CCC(N)=O)NC(=O)[C@H](C)NC(=O)CNC(=O)[C@H](Cc2c[nH]cn2)NC(=O)[C@H](Cc2ccc(O)cc2)NC(=O)COCCOCCNC(=O)COCCOCCNC(=O)CC[C@H](NC(=O)CCCCCCCCCCCCCCCCC(=O)O)C(=O)O)[C@@H](C)O)CSSC[C@@H](C(=O)O)NC(=O)CNC(=O)[C@H](CC(C)C)NC(=O)CNC(=O)[C@H](CO)NC(=O)[C@H](CC(C)C)NC(=O)[C@H](CO)NC(=O)CNC1=O` [compound 1304] ({C18 diacid-γGlu-AEEA-AEEA}-YHGAQHTGLSSGCFGLPLDRIGSLSGLGC-OH; disulfide 13-29), the “hNPR2 0% HSA. [EC50% rel CNP]” value [1] was 20.7% and the “2-Week HMWP formation at pH 6.5 (%), % relative to total peak area” value [2] was 1.55%.

In the case of `CC[C@H](C)[C@@H]1NC(=O)[C@H](CCCNC(=N)N)NC(=O)[C@H](CC(=O)O)NC(=O)[C@H](CC(C)C)NC(=O)[C@@H]2CCCN2C(=O)[C@H](CC(C)C)NC(=O)CNC(=O)[C@H](Cc2ccccc2)NC(=O)[C@@H](NC(=O)CNC(=O)[C@H](CO)NC(=O)[C@H](CO)NC(=O)[C@H](CC(C)C)NC(=O)CNC(=O)[C@H](CCCCN)NC(=O)[C@H](CCCCN)NC(=O)[C@H](CCC(N)=O)NC(=O)[C@H](C)NC(=O)CNC(=O)[C@H](Cc2c[nH]cn2)NC(=O)[C@H](CCC(=O)O)NC(=O)COCCOCCNC(=O)COCCOCCNC(=O)CC[C@H](NC(=O)CCCCCCCCCCCCCCCCC(=O)O)C(=O)O)CSSC[C@@H](C(=O)O)NC(=O)CNC(=O)[C@H](CC(C)C)NC(=O)CNC(=O)[C@H](CO)NC(=O)[C@H](CC(C)C)NC(=O)[C@H](CO)NC(=O)CNC1=O` [compound 1310] ({C18 diacid-γGlu-AEEA-AEEA}-EHGAQKKGLSSGCFGLPLDRIGSLSGLGC-OH; disulfide 13-29), the “hNPR2 0% HSA. [EC50% rel CNP]” value [1] is reported as 10.4% and the “2-Week HMWP formation at pH 6.5 (%), % relative to total peak area” value [2] is reported as 0.87%.

With `CC[C@H](C)[C@@H]1NC(=O)[C@H](CCCNC(=N)N)NC(=O)[C@H](CC(=O)O)NC(=O)[C@H](CC(C)C)NC(=O)[C@@H]2CCCN2C(=O)[C@H](CC(C)C)NC(=O)CNC(=O)[C@H](Cc2ccccc2)NC(=O)[C@@H](NC(=O)CNC(=O)[C@H](CO)NC(=O)[C@H](CO)NC(=O)[C@@H](NC(=O)CNC(=O)[C@@H](NC(=O)[C@H](Cc2c[nH]cn2)NC(=O)[C@H](CCC(N)=O)NC(=O)[C@H](C)NC(=O)CNC(=O)[C@H](Cc2c[nH]cn2)NC(=O)[C@H](Cc2ccc(O)cc2)NC(=O)[C@H](CCCCN)NC(=O)[C@H](CCCNC(=N)N)NC(=O)[C@H](C)NC(=O)COCCOCCNC(=O)COCCOCCNC(=O)CC[C@H](NC(=O)CCCCCCCCCCCCCCCCC(=O)O)C(=O)O)[C@@H](C)O)C(C)C)CSSC[C@@H](C(=O)O)NC(=O)CNC(=O)[C@H](CC(C)C)NC(=O)CNC(=O)[C@H](CO)NC(=O)[C@H](CC(C)C)NC(=O)[C@H](CO)NC(=O)CNC1=O` [compound 1351] ({C18 diacid-γGlu-AEEA-AEEA}-ARKYHGAQHTGVSSGCFGLPLDRIGSLSGLGC-OH; disulfide 16-32) the “hNPR2 0% HSA. [EC50% rel CNP]” value [1] was 55.2% and the “2-Week HMWP formation at pH 4.0 (%), % relative to total peak area” value ([2]; pH 4.0) was 1.94%.

In the case of `CC[C@H](C)[C@@H]1NC(=O)[C@H](CCCNC(=N)N)NC(=O)[C@H](CC(=O)O)NC(=O)[C@H](CC(C)C)NC(=O)[C@@H]2CCCN2C(=O)[C@H](CC(C)C)NC(=O)CNC(=O)[C@H](Cc2ccccc2)NC(=O)[C@@H](NC(=O)CNC(=O)[C@H](CCCCN)NC(=O)[C@H](CO)NC(=O)[C@@H](NC(=O)CNC(=O)[C@@H](NC(=O)[C@H](Cc2c[nH]cn2)NC(=O)[C@H](CCC(N)=O)NC(=O)[C@H](C)NC(=O)CNC(=O)[C@H](Cc2c[nH]cn2)NC(=O)[C@H](Cc2ccc(O)cc2)NC(=O)[C@H](CCCCN)NC(=O)[C@H](CCCNC(=N)N)NC(=O)[C@H](C)NC(=O)COCCOCCNC(=O)COCCOCCNC(=O)CC[C@H](NC(=O)CC[C@H](NC(=O)CC[C@H](NC(=O)CCCCCCCCCCCCCCCCC(=O)O)C(=O)O)C(=O)O)C(=O)O)[C@@H](C)O)C(C)C)CSSC[C@@H](C(=O)O)NC(=O)CNC(=O)[C@H](CC(C)C)NC(=O)CNC(=O)[C@H](CO)NC(=O)[C@H](CC(C)C)NC(=O)[C@H](CO)NC(=O)CNC1=O` [compound 1420] ({C18 diacid-γGlu-γGlu-γGlu-AEEA-AEEA}-ARKYHGAQHTGVSKGCFGLPLDRIGSLSGLGC-OH; disulfide 16-32), the “hNPR2 0% HSA. [EC50% rel CNP]” value [1] is reported as 87.5%.

In the case of `CC[C@H](C)[C@@H]1NC(=O)[C@H](CCCNC(=N)N)NC(=O)[C@H](CC(=O)O)NC(=O)[C@H](CC(C)C)NC(=O)[C@@H]2CCCN2C(=O)[C@H](CC(C)C)NC(=O)CNC(=O)[C@H](Cc2ccccc2)NC(=O)[C@@H](NC(=O)CNC(=O)[C@H](CCC(N)=O)NC(=O)[C@H](CO)NC(=O)[C@H](CC(C)C)NC(=O)CNC(=O)[C@H](CO)NC(=O)[C@H](CCCCN)NC(=O)[C@H](CCC(N)=O)NC(=O)[C@H](C)NC(=O)CNC(=O)[C@H](Cc2c[nH]cn2)NC(=O)[C@H](Cc2ccc(O)cc2)NC(=O)[C@H](CCCCN)NC(=O)[C@H](CCCNC(=N)N)NC(=O)[C@H](C)NC(=O)COCCOCCNC(=O)COCCOCCNC(=O)CC[C@H](NC(=O)CC[C@H](NC(=O)CCCCCCCCCCCCCCCCc2nnn[nH]2)C(=O)O)C(=O)O)CSSC[C@@H](C(=O)O)NC(=O)CNC(=O)[C@H](CC(C)C)NC(=O)CNC(=O)[C@H](CO)NC(=O)[C@H](CC(C)C)NC(=O)[C@H](CO)NC(=O)CNC1=O` [compound 1426] ({X1-γGlu-γGlu-AEEA-AEEA}-ARKYHGAQKSGLSQGCFGLPLDRIGSLSGLGC-OH; disulfide 16-32), the “hNPR2 0% HSA. [EC50% rel CNP]” value [1] is reported as 76.2%.

In the case of `CC[C@H](C)[C@@H]1NC(=O)[C@H](CCCNC(=N)N)NC(=O)[C@H](CC(=O)O)NC(=O)[C@H](CC(C)C)NC(=O)[C@@H]2CCCN2C(=O)[C@H](CC(C)C)NC(=O)CNC(=O)[C@H](Cc2ccccc2)NC(=O)[C@@H](NC(=O)CNC(=O)[C@H](CCC(N)=O)NC(=O)[C@H](CO)NC(=O)[C@H](CC(C)C)NC(=O)CNC(=O)[C@H](CCCCN)NC(=O)[C@H](CCCCN)NC(=O)[C@H](CCC(N)=O)NC(=O)[C@H](C)NC(=O)CNC(=O)[C@@H]2CCCN2C(=O)[C@H](C)NC(=O)[C@H](CCC(N)=O)NC(=O)CNC(=O)COCCOCCNC(=O)COCCOCCNC(=O)CC[C@H](NC(=O)CCCCCCCCCCCCCCCCC(=O)O)C(=O)O)CSSC[C@@H](C(=O)O)NC(=O)CNC(=O)[C@H](CC(C)C)NC(=O)CNC(=O)[C@H](CO)NC(=O)[C@H](CC(C)C)NC(=O)[C@H](CO)NC(=O)CNC1=O` [compound 1484] ({C18 diacid-γGlu-AEEA-AEEA}-GQAPGAQKKGLSQGCFGLPLDRIGSLSGLGC-OH; disulfide 15-31; C-terminus assumed), the “hNPR2 0% HSA. [EC50% rel CNP]” value [1] is reported as 27.9%.
